Laboratory results published in patent EP4707277A1, “NOVEL HETEROCYCLIC AMINE DERIVATIVES AND PHARMACEUTICAL COMPOSITION COMPRISING SAME” (Daewoong Pharmaceutical Co., Ltd., priority 2023, dated 2024).
Where two headings read alike, the source gives them in different places.

Assays:
[1] = target: T1, BTK (Homo sapiens, UniProt Q06187); experiment: Inhibitory activity against BTK, ADP-Glo Kinase system (Promega); format: biochemical
T1 construct: purchased Signalchem B10-10H
Description: (§1) Inhibitory activities against BTK and ITK were measured for the compounds prepared in the above Examples as follows.
(§2) The inhibitory activities against BTK and ITK were evaluated using 'ADP-Glo™ Kinase system' (Promega Corporation). In the case of this evaluation method, activation was measured by quantifying the amount of ADP produced during the kinase reaction, which was utilized to measure the inhibitory activities against BTK and ITK.
(§3) Specifically, the inhibitory activities against BTK and ITK were measured using BTK kinase (Signalchem, B10-10H), ITK kinase (Signalchem, I13-11G-10), and ADP-Glo kinase assay kit (Promega, V9102). Recombinant purified human BTK and ITK were diluted with 1 x kinase reaction buffer (40 mM Tris-Cl, pH 7.5, 20 mM MgCl2, 0.1 mg/mL BSA, 2 mM MnCl2 and 50 uM DTT) and added to a 96 well plate (ITK: final concentration of 4 ng per reaction/BTK: final concentration of 10 ng per reaction). The compounds prepared in the previous Examples were treated so as to be finally a 1% DMSO aqueous solution, and a substrate cocktail containing ATP (1mM or Km ATP (BTK: 10 uM /ITK: 25uM)) and 0.2 ug/ul of Poly (Glu4,Tyr1) peptide (BTK and ITK final concentration) in the total 25 uL reactants was added to a 96-well plate to initiate enzymatic reaction. After incubation (30°C) for 1 hour, equivalent volume (25 uL per reaction) of ADP Glo was added, and incubated (30°C) for 40 minutes at room temperature. Then, a kinase detection reagent (45 uL per reaction) was added, and incubated (30°C) for 30 minutes at room temperature. The kinase activity was measured by chemiluminescence according to the instructions of ADP Glo kinase assay kit, and the inhibitory activity of the compounds according to the present disclosure was calculated. For the analysis of the results of each compound, Microsoft Excel was used, and IC50 values were calculated by GraphPad Prism software.

[2] = target: T2, ITK (Homo sapiens, UniProt Q08881); experiment: Inhibitory activity against ITK, ADP-Glo Kinase system (Promega); format: biochemical
T2 construct: purchased Signalchem I13-11G-10
T2 sequence (Q08881 1-620): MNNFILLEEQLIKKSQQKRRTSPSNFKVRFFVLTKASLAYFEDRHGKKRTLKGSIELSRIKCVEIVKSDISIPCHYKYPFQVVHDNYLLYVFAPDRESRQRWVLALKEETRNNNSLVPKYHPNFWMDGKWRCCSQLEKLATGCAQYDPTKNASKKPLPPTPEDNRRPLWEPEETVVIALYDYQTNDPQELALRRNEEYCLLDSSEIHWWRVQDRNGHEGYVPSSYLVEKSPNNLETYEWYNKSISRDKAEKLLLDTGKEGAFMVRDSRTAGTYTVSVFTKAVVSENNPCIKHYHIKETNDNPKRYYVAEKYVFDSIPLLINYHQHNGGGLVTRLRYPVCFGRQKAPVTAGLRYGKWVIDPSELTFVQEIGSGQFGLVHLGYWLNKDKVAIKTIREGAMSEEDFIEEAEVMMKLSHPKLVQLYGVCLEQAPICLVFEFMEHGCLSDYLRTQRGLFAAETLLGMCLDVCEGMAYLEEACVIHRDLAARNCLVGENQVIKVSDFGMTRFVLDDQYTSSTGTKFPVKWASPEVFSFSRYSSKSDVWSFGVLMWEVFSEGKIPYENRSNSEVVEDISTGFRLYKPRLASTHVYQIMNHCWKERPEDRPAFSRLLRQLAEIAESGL
Description: as §1, §2, §3

[3] = 1mM ATP, read-out: BTK IC50(nM) 1mM ATP
[4] = Km ATP (BTK: 10 uM), read-out: BTK IC50(nM) Km ATP
[5] = 1mM ATP, read-out: ITK IC50(nM) 1mM ATP
[6] = Km ATP (ITK: 25uM), read-out: ITK IC50(nM) Km ATP

T1 sequence (Q06187 whole entry): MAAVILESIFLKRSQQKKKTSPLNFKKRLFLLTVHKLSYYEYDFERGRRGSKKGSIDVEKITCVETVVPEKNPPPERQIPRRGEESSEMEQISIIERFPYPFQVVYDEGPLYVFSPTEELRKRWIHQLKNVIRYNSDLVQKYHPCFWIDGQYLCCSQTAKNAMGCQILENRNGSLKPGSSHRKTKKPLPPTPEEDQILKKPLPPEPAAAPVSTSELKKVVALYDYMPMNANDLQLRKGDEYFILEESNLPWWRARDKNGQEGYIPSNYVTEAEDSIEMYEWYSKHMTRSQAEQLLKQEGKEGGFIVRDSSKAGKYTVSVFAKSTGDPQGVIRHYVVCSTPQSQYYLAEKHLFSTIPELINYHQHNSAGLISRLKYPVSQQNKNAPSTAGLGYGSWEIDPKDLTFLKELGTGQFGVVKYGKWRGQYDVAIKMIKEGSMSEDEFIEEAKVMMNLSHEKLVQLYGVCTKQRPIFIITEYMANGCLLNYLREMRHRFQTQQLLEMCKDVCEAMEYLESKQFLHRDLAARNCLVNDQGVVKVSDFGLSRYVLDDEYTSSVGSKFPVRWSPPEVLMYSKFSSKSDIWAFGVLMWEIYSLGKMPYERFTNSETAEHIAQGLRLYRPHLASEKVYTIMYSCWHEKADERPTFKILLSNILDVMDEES

| IC50 [1, 3] [nM] | IC50 [1, 4] [nM] | IC50 [2, 5] [nM] | IC50 [2, 6] [nM] | Structure (SMILES) |
| --- | --- | --- | --- | --- |
| 20 to 100 | ≤ 20 | 100 to 500 | ≤ 20 | C=CC(=O)N1CC=C(c2nc(Nc3ncc(C)s3)cc3c2ccn3CC(F)(F)F)CC1 [Example 19, 1-(4-(6-((5-methylthiazol-2-yl)amino)-1-(2,2,2-trifluoroethyl)-1H-pyrrolo[3,2-c]pyridin-4-yl)-3,6-dihydropyridin-1(2H)-yl)prop-2-en-1-one] |
|  | ≤ 20 |  | ≤ 20 | C=CC(=O)N1CC=C(c2nc(Nc3ncc(C)s3)cc3c2ccn3C2CC2(F)F)CC1 (stereo not drawn) [Example 20, 1-(4-(1-(2,2-difluorocyclopropyl)-6-((5-methylthiazol-2-yl)amino)-1H-pyrrolo[3,2-c]pyridin-4-yl)-3,6-dihydropyridin-1(2H)-yl)prop-2-en-1-one] |
|  | ≤ 20 |  | ≤ 20 | C=CC(=O)N1CC=C(c2nc(Nc3ncc(C)s3)cc3c2ccn3C(F)F)CC1 [Example 21, 1-(4-(1-(difluoromethyl)-6-((5-methylthiazol-2-yl)amino)-1H-pyrrolo[3,2-c]pyridin-4-yl)-3,6-dihydropyridin-1(2H)-yl)prop-2-en-1-one] |
|  | ≤ 20 |  | ≤ 20 | C=CC(=O)N1CC=C(c2nc(Nc3ncc(C)s3)cc3c2ccn3C(C)(C)C#N)CC1 [Example 22, 2-(4-(1-acryloyl-1,2,3,6-tetrahydropyridin-4-yl)-6-((5-methylthiazol-2-yl)amino)-1H-pyrrolo[3,2-c]pyridin-1-yl)-2-methylpropanenitrile] |
|  | 20 to 100 |  | ≤ 20 | C=CC(=O)N1CCC=C(c2nc(Nc3ncc(C)s3)cc3c2ccn3C(C)(C)C#N)C1 [Example 23, 2-(4-(1-acryloyl-1,2,5,6-tetrahydropyridin-3-yl)-6-((5-methylthiazol-2-yl)amino)-1H-pyrrolo[3,2-c]pyridin-1-yl)-2-methylpropanenitrile] |
| ≤ 20 |  | 20 to 100 |  | C=CC(=O)N1CC=C(c2nc(Nc3ncc(C)s3)cc3c2ccn3[C@H](C)C(F)(F)F)CC1 [Example 24, (R)-1-(4-(6-((5-methylthiazol-2-yl)amino)-1-(1,1,1-trifluoropropan-2-yl)-1H-pyrrolo[3,2-c]pyridin-4-yl)-3,6-dihydropyridin-1(2H)-yl)prop-2-en-1-one] |
| > 500 |  | > 500 |  | C=CC(=O)N1CC=C(c2nc(Nc3ncc(C)s3)cc3c2ccn3CC(F)F)C(C)C1 (stereo not drawn) [Example 25, 1-(4-(1-(2,2-difluoroethyl)-6-((5-methylthiazol-2-yl)amino)-1H-pyrrolo[3,2-c]pyridin-4-yl)-3-methyl-3,6-dihydropyridin-1(2H)-yl)prop-2-en-1-one] |
|  | ≤ 20 |  | ≤ 20 | C=CC(=O)N1CCC=C(c2nc(Nc3ncc(C)s3)cc3c2ccn3C(C)C)CC1 [Example 26, 1-(4-(1-isopropyl-6-((5-methylthiazol-2-yl)amino)-1H-pyrrolo[3,2-c]pyridin-4-yl)-2,3,6,7-tetrahydro-1H-azepin-1-yl)prop-2-en-1-one] |
|  | ≤ 20 |  | ≤ 20 | C=CC(=O)N1C2C=C(c3nc(Nc4ncc(C)s4)cc4c3ccn4C(C)C)CC1COC2 (stereo not drawn) [Example 27, 1-(7-(1-isopropyl-6-((5-methylthiazol-2-yl)amino)-1H-pyrrolo[3,2-c]pyridin-4-yl)-3-oxa-9-azabicyclo[3.3.1]non-6-en-9-yl)prop-2-en-1-one] |
| ≤ 20 | ≤ 20 | ≤ 20 | ≤ 20 | C=CC(=O)N1C2C=C(c3nc(Nc4ncc(C)s4)cc4c3ccn4C)CC1CC2 (stereo not drawn) [Example 28, 1-(3-(1-methyl-6-((5-methylthiazol-2-yl)amino)-1H-pyrrolo[3,2-c]pyridin-4-yl)-8-azabicyclo[3.2.1]oct-2-en-8-yl)prop-2-en-1-one] |
|  | ≤ 20 |  | ≤ 20 | C=CC(=O)N1C2C=C(c3nc(Nc4ncc(C)s4)cc4c3ccn4C(C)C)CC1CC2 (stereo not drawn) [Example 29, 1-(3-(1-isopropyl-6-((5-methylthiazol-2-yl)amino)-1H-pyrrolo[3,2-c]pyridin-4-yl)-8-azabicyclo[3.2.1]oct-2-en-8-yl)prop-2-en-1-one] |
| ≤ 20 |  | ≤ 20 |  | C=CC(=O)N1C2C=C(c3nc(Nc4ncc(C)s4)cc4c3ccn4CC3(C(F)(F)F)CC3)CC1CC2 (stereo not drawn) [Example 30, 1-(3-(6-((5-methylthiazol-2-yl)amino)-1-((1-(trifluoromethyl)cyclopropyl)methyl)-1H-pyrrolo[3,2-c]pyridin-4-yl)-8-azabicyclo[3.2.1]oct-2-en-8-yl)prop-2-en-1-one] |
|  | ≤ 20 |  | ≤ 20 | C=CC(=O)N1C2C=C(c3nc(Nc4ncc(C)s4)cc4c3ccn4C3CC3(F)F)CC1CC2 (stereo not drawn) [Example 31, 1-(3-(1-(2,2-difluorocyclopropyl)-6-((5-methylthiazol-2-yl)amino)-1H-pyrrolo[3,2-c]pyridin-4-yl)-8-azabicyclo[3.2.1]oct-2-en-8-yl)prop-2-en-1-one] |
| ≤ 20 | ≤ 20 | ≤ 20 | ≤ 20 | C=CC(=O)N1C2C=C(c3nc(Nc4ncc(C)s4)cc4c3ccn4CC(C)C)CC1CC2 (stereo not drawn) [Example 32, 1-(3-(1-isobutyl-6-((5-methylthiazol-2-yl)amino)-1H-pyrrolo[3,2-c]pyridin-4-yl)-8-azabicyclo[3.2.1]oct-2-en-8-yl)prop-2-en-1-one] |
| ≤ 20 |  | ≤ 20 |  | C=CC(=O)N1C2C=C(c3nc(Nc4ncc(C)s4)cc4c3ccn4C3CCCC3)CC1CC2 (stereo not drawn) [Example 33, 1-(3-(1-cyclopentyl-6-((5-methylthiazol-2-yl)amino)-1H-pyrrolo[3,2-c]pyridin-4-yl)-8-azabicyclo[3.2.1]oct-2-en-8-yl)prop-2-en-1-one] |
| ≤ 20 | ≤ 20 | 20 to 100 | ≤ 20 | C=CC(=O)N1C2C=C(c3nc(Nc4ncc(C)s4)cc4c3ccn4CC(F)F)CC1CC2 (stereo not drawn) [Example 34, 1-(3-(1-(2,2-difluoroethyl)-6-((5-methylthiazol-2-yl)amino)-1H-pyrrolo[3,2-c]pyridin-4-yl)-8-azabicyclo[3.2.1]oct-2-en-8-yl)prop-2-en-1-one] |
| ≤ 20 |  | ≤ 20 |  | C=CC(=O)N1C2C=C(c3nc(Nc4ncc(C)s4)cc4c3ccn4C)CC1CCC2 (stereo not drawn) [Example 36, 1-(3-(1-methyl-6-((5-methylthiazol-2-yl)amino)-1H-pyrrolo[3,2-c]pyridin-4-yl)-9-azabicyclo[3.3.1]non-2-en-9-yl)prop-2-en-1-one] |
| ≤ 20 |  | ≤ 20 |  | C=CC(=O)N1C2C=C(c3nc(Nc4ncc(C)s4)cc4c3ccn4C(C)C)CC1CCC2 (stereo not drawn) [Example 37, 1-(3-(1-isopropyl-6-((5-methylthiazol-2-yl)amino)-1H-pyrrolo[3,2-c]pyridin-4-yl)-9-azabicyclo[3.3.1]non-2-en-9-yl)prop-2-en-1-one] |
| ≤ 20 |  | ≤ 20 |  | C=CC(=O)N1C2C=C(c3nc(Nc4ncc(C)s4)cc4c3ccn4CC(C)C)CC1CCC2 (stereo not drawn) [Example 38, 1-(3-(1-isobutyl-6-((5-methylthiazol-2-yl)amino)-1H-pyrrolo[3,2-c]pyridin-4-yl)-9-azabicyclo[3.3.1]non-2-en-9-yl)prop-2-en-1-one] |

| Structure (SMILES) | IC50 [1, 3] [nM] | IC50 [1, 4] [nM] | IC50 [2, 5] [nM] | IC50 [2, 6] [nM] |
| --- | --- | --- | --- | --- |
| C=CC(=O)N1C2C=C(c3nc(Nc4ncc(C)s4)cc4c3ccn4CC(F)(F)F)CC1CC2 (stereo not drawn) [Example 35, 1-(3-(6-((5-methylthiazol-2-yl)amino)-1-(2,2,2-trifluoroethyl)-1H-pyrrolo[3,2-c]pyridin-4-yl)-8-azabicyclo[3.2.1]oct-2-en-8-yl)prop-2-en-1-one] | ≤ 20 |  | ≤ 20 |  |
